Here are results for three molecules from patent US7538083B2, “Compositions and methods for the potentiation of immune responses against target antigens” (Intercell AG, priority 2003, dated 2009).

Test [1] concerns malaria mimetic UK39 (serum IgG against it). Description: UK39 ELISA of mouse sera after immunization with UK39 IRIV with or without melittin. The following applies: Balb/c mice, UK39 IRIV (20 μg UK39) + 10 μg melittin; sera day 21 and 35, IgG ELISA read at 492 nm. In kind it is in vivo. Here is the method:
Balb/c mice were immunized with 100 μl PBS containing: the malaria mimetic UK39 (20 μg UK39) in combination with an IRIV with or without 10 μg Melittin. For the UK39 ELISA, ELISA plates were coated over night at 4° C. with 10 μg/ml UK39 in PBS. After washing with PBS 0.05% Tween20 plates were blocked with 5% dry milk in PBS 2 h at 37° C. Mouse sera from day 21 and 35 were initially diluted 1:10 and titrated in serial 1:2 dilutions in PBS 0.05% Tween20 0.5% dry milk. After 2 h incubation at 37° C. plates were washed and incubated with goat […]-mouse IgG HRP Ab (BD Bioscience) (1:5000 in PBS 0.05% Tween20 0.5% dry milk) 1 h 37° C. Plates were developed with OPD-substrate (OPD (O-Phenylenediamine tablets, Fluka, Switzerland, 1 tablet in 50 ml citrate buffer+50 μl H2O2) for 30 min. The reaction was stopped with 1 M H2SO4 and plates were read at 492 nm.
UK39 IRIV: 4 mg UK39, 4 mg influenza A/Singapore, 32 mg phosphatidylcholine (PC) and 8 mg phosphatidylethanolamine (PE) were resuspended in 4 ml 100 mM OEG in PBS (OEG-PBS), sonicated for 1 min and centrifugated for 1 h at 100′000×g at 20° C. […]
UK39 ELISA: ELISA plates were coated over night at 4° C. with 10 μg/ml UK39 in PBS. […] Plates were developed with OPD-substrate (OPD (O-Phenylendiamine tablets, Fluka, Switzerland, 1 tablet in 50 ml citrate buffer+50 μl H2O2) for 30 min. The reaction was stopped with 1 M H2SO4 and plates were read at 492 nm.
For orientation: An ELISA detects its analyte on a solid surface through an enzyme-linked reagent.

For test [2], the system named is OVA257-64 peptide specific IFNγ+ CD8+ T cells. The arrangement: species or system C57Bl/6 mice. The settings on record: mouse, in vivo.
Test [3] relates to IFNγ+ CD8+ T cells specific for T4 peptide VVYDFLKCM (Kb/T404-412). Description: Splenic T4-specific IFNγ+ CD8+ T cell frequency after i.m. vaccination with T4/melittin-derived fusion peptide with or without ODN. Format: in vivo, C57BL/6 (B6) mice. The settings on record: B6 mice, 35 nmol i.m.; for dependence of adjuvant activity on CpG motifs in the ODN: NSS+ ODN-1982 (no CpG) versus ISS+ ODN-1826 (CpG). The text has this:
The adjuvant activity of the melittin-derived peptide thus acts synergistically even with oligodeoxynucleotides that lack any immunostimulatory sequences. C57BL/6 (B6) mice were either not immunized (group 1) or vaccinated i.m. with 35 nmol of peptides alone (group 2) or mixed with oligodeoxynucleotide (group 3), not containing (A; NSS^+ ODN-1982; SEQ ID NO: 7), or containing (B; ISS^+ ODN-1826; SEQ ID NO: 6) CpG motifs. Spleen cells obtained from immune mice 12 days post vaccination were restimulated ex vivo with the T4 peptide VVYDFLKCM (K^b/T404-412, SEQ ID NO: 4). Mean number of specific IFNγ^+ CD8^+ T cells/10^5 CD8^+ T cells±SD (of 6 mice per group) averaged from two independent experiments are shown.
Fusion of a sample antigen (here, T4 peptide) to the melittin-derived peptide and binding ODN to them creates potent immunogens for CD8^+ T cells. A sample target antigen, the SV40-derived T4 peptide T404-417 VVYDFLKCMVYNIP (SEQ ID NO: 5) was fused to a duplicated amino acid sequence derived from melittin (KRKRQKRKRQ, SEQ ID NO: 2). B6 mice were vaccinated i.m. with 35 nmol of these peptides alone (group 2), or mixed with ODN (group 3), not containing (A; NSS+ ODN-1982), or containing (B; ISS+ ODN-1826) CpG motifs (FIG. 1). Spleen cells obtained from immune mice 12 days post-vaccination were restimulated ex vivo with the T4 peptide VVYDFLKCM (SEQ ID NO: 4) (Kb/T404-412). Mean numbers of specific IFNγ^+ CD8^+ T cells/10^5 CD8^+ T cells±SD (of 6 mice per group) averaged from two independent experiments are shown.
C57BL/6JBom (B6) mice (H-2b) were bred and kept under standard pathogen-free conditions in the animal colony of Ulm University (Ulm, Germany). Male/female mice were used at 12-16 wks of age. The preparation of cationic peptide/ODN vaccines CpG containing ODN-1826 ([…]; ISS-1826, SEQ ID NO: 6) and its control ODN-1982 ([…]; NSS-1982, SEQ ID NO: 7) were obtained from MWG (Ebersberg, Germany). ODN were synthesized with phosphorothioate backbones. […] The number of CD8^+ IFNγ^+ T cells per 10^5 splenic CD8^+ T cells was determined by FCM analyses.

“Also recorded” adds a separate entry of the source.

For the molecule `CC[C@H](C)[C@H](NC(=O)CN)C(=O)NCC(=O)N[C@@H](C)C(=O)N[C@H](C(=O)N[C@@H](CC(C)C)C(=O)N[C@@H](CCCCN)C(=O)N[C@H](C(=O)N[C@@H](CC(C)C)C(=O)N[C@H](C(=O)N[C@H](C(=O)NCC(=O)N[C@@H](CC(C)C)C(=O)N1CCC[C@H]1C(=O)N[C@@H](C)C(=O)N[C@@H](CC(C)C)C(=O)N[C@H](C(=O)N[C@@H](CO)C(=O)N[C@@H](Cc1c[nH]c2ccccc12)C(=O)N[C@H](C(=O)N[C@@H](CCCCN)C(=O)N[C@@H](CCCNC(=N)N)C(=O)N[C@@H](CCCCN)C(=O)N[C@@H](CCCNC(=N)N)C(=O)N[C@@H](CCC(N)=O)C(=O)N[C@@H](CCC(N)=O)C(N)=O)[C@@H](C)CC)[C@@H](C)CC)[C@@H](C)O)[C@@H](C)O)C(C)C)C(C)C` [melittin], in test [1], the “humoral immune response (B cell immunity) against antigen UK39 coupled to IRIV” value is “adjuvant effect; also recorded: further enhanced”.

With CKRKRQKRKRQSIINFEKL [Cys-Mel-OVA257-64], in test [2], the “adjuvant effect in combination with IRIVs (peptide specific IFNγ+ CD8+ T cells)” value is “further potentiated by its combination with IRIVs; also recorded: further synergizes with IRIVs”. For the molecule “KRKRQKRKRQ (Synthetic peptide derived from Apis mellifera)”, the “adjuvant activity (specific IFNγ+ CD8+ T cells/10^5 CD8+ T cells)” value in test [3] (combined with target antigen T4 and oligodeoxynucleotide, spleen cells 12 days post vaccination restimulated ex vivo with T4 peptide) is given as “significant adjuvant activity”. In addition, the “dependence of adjuvant activity on CpG motifs in the ODN” value in test [3] is given as “not dependent on the presence of CpG sequences in the ODN”; in test [3] (listed as KRKRQKRKRQ) it was “does not depend on the presence of CpG motifs”.
